This is an account of results in ChEMBL document CHEMBL1132181, “Prodrugs for amidines: synthesis and anti-Pneumocystis carinii activity of carbamates of 2,5-bis(4-amidinophenyl)furan” (J Med Chem, 1999).

The subject of series [1] is Pneumocystis carinii. Kind of series: The compound was tested in vivo against Pneumocystis carinii pneumonia (PCP) in the immunosuppressed rat model at oral dose of 39.8(umol/kg/day). The class given is functional.
The test system of series [2] is Rattus norvegicus. Nature of the series: Toxicity is evaluated according to a five-level scale ranging from 0 to 5+ at the specified iv dose of 13.3 (umol/kg/day). The conditions noted are these: in vivo. The class given is organism-based.
The test system of series [3] is Rattus norvegicus. Kind of series: Toxicity is evaluated according to a five-level scale ranging from 0 to 5+ at the specified oral dose of 39.8 (umol/kg/day). The class given is organism-based. The conditions noted are these: in vivo.
Series [4] has as its system Pneumocystis carinii. Kind of series: The compound was tested in vivo against Pneumocystis carinii pneumonia (PCP) in the immunosuppressed rat model at iv dose of 13.3 (umol/kg/day). In kind it is functional.
For series [5], the system named is Rattus norvegicus. Nature of the series: Toxicity is evaluated according to a five-level scale ranging from 0 to 5+ at the specified oral dose of 33.0 (umol/kg/day). In kind it is organism-based. The conditions noted are these: in vivo.
Series [6] deals with Pneumocystis carinii. Nature of the series: The compound was tested in vivo against Pneumocystis carinii pneumonia (PCP) in the immunosuppressed rat model at oral dose of 33.0(umol/kg/day). The class given is functional.
The subject of series [7] is Pneumocystis carinii. Nature of the series: The compound was tested in vivo against Pneumocystis carinii pneumonia (PCP) in the immunosuppressed rat model at iv dose of 11.3(umol/kg/day). The class given is functional.
Series [8] relates to Rattus norvegicus. Nature of the series: Toxicity is evaluated according to a five-level scale ranging from 0 to 5+ at the specified iv dose of 11.0 (umol/kg/day). The class given is organism-based. To be noted: in vivo.
Series [9] has as its system Pneumocystis carinii. Nature of the series: The compound was tested in vivo against Pneumocystis carinii pneumonia (PCP) in the immunosuppressed rat model at iv dose of 11.0 (umol/kg/day). The class given is functional.
In series [10] the test system is Pneumocystis carinii. Kind of series: The compound was tested in vivo against Pneumocystis carinii pneumonia (PCP) in the immunosuppressed rat model at iv dose of 22.0 (umol/kg/day). The class given is functional.
The subject of series [11] is Rattus norvegicus. Kind of series: Toxicity is evaluated according to a five-level scale ranging from 0 to 5+ at the specified iv dose of 22.0 (umol/kg/day). In kind it is organism-based. The conditions noted are these: in vivo.
Series [12] has as its system Rattus norvegicus. Nature of the series: Toxicity is evaluated according to a five-level scale ranging from 0 to 5+ at the specified iv dose of 34.7 (umol/kg/day). To be noted: in vivo. The class given is organism-based.
For series [13], the system named is Pneumocystis carinii. Nature of the series: The compound was tested in vivo against Pneumocystis carinii pneumonia (PCP) in the immunosuppressed rat model at iv dose of 34.7 (umol/kg/day). In kind it is functional.

`N=C(N)c1ccc(-c2ccc(-c3ccc(C(=N)N)cc3)o2)cc1` [FURAMIDINE]: the Control is given as 44.52% with Pneumocystis carinii [1] and 0.83% with Pneumocystis carinii [4]. For the same compound, the Toxicity in the series on Rattus norvegicus [2] and in the series with Rattus norvegicus [3] was 0 in each case.
For the compound `N=C(NC(=O)OCc1ccccc1)c1ccc(-c2ccc(-c3ccc(C(=N)NC(=O)OCc4ccccc4)cc3)o2)cc1`, the Toxicity in the series with Rattus norvegicus [5] and with Rattus norvegicus [8] was 0 in each case. Besides, the Control in the series with Pneumocystis carinii [6] was 18.09%; with Pneumocystis carinii [7], 0.03%.
For the compound `CC(=O)OC(C)OC(=O)NC(=N)c1ccc(-c2ccc(-c3ccc(C(=N)NC(=O)OC(C)OC(C)=O)cc3)o2)cc1` (centres undefined), the Toxicity in the series with Rattus norvegicus [5] is 0. Further, the Control in the series with Pneumocystis carinii [6] came out at 57.16%; with Pneumocystis carinii [9], 1.21%.
With `N/C(=N\C(=O)OCC(Cl)(Cl)Cl)c1ccc(-c2ccc(-c3ccc(/C(N)=N\C(=O)OCC(Cl)(Cl)Cl)cc3)o2)cc1`, the Toxicity in the series on Rattus norvegicus [5] and in the series on Rattus norvegicus [11] was 0 in each case. The Control is listed as 1.85% with Pneumocystis carinii [10] and 8.59% in the series on Pneumocystis carinii [6].
On to `CCOC(=O)ONC(=N)c1ccc(-c2ccc(-c3ccc(C(=N)NOC(=O)OCC)cc3)o2)cc1`, for which the Toxicity in the series on Rattus norvegicus [5] and with Rattus norvegicus [12] was 0 each time. The Control in the series with Pneumocystis carinii [6] is recorded as 96.9%; in the series with Pneumocystis carinii [13], 1.66%.
In the series with Pneumocystis carinii [10], `N=C(N)c1ccc(OCCCCCOc2ccc(C(=N)N)cc2)cc1` [PENTAMIDINE] gave a Control of 3.06%.
Regarding `CCSC(=O)NC(=N)c1ccc(-c2ccc(-c3ccc(C(=N)NC(=O)SCC)cc3)o2)cc1`, the Toxicity in the series on Rattus norvegicus [5] and in the series with Rattus norvegicus [11] was 0 in each case. For the same compound, the results for the Control in the series on Pneumocystis carinii [10] and in the series with Pneumocystis carinii [6] were 83.01% and 19.52%, respectively.
Consider `COC(=O)NC(=N)c1ccc(-c2ccc(-c3ccc(C(=N)NC(=O)OC)cc3)o2)cc1`, for which the Toxicity with Rattus norvegicus [5] and in the series with Rattus norvegicus [11] was 0 in each case. In addition, the Control in the series with Pneumocystis carinii [10] came out at 6.91%; with Pneumocystis carinii [6], 49.68%.
Take `Cc1oc(=O)oc1COC(=O)NC(=N)c1ccc(-c2ccc(-c3ccc(C(=N)NC(=O)OCc4oc(=O)oc4C)cc3)o2)cc1`: the Toxicity in the series with Rattus norvegicus [5] and in the series with Rattus norvegicus [11] was 0 in each case. Further, the Control is recorded as 0.02% in the series on Pneumocystis carinii [10] and 18.73% with Pneumocystis carinii [6].
Take `N=C(NC(=O)Oc1ccccc1)c1ccc(-c2ccc(-c3ccc(C(=N)NC(=O)Oc4ccccc4)cc3)o2)cc1`: the Toxicity in the series with Rattus norvegicus [5] and with Rattus norvegicus [11] was 0 in each case. Also, the Control in the series with Pneumocystis carinii [10] is reported as 3.61%; with Pneumocystis carinii [6], 5.7%.
For the compound `N=C(NC(=O)Oc1ccc(F)cc1)c1ccc(-c2ccc(-c3ccc(C(=N)NC(=O)Oc4ccc(F)cc4)cc3)o2)cc1`, the Toxicity in the series on Rattus norvegicus [5] and in the series on Rattus norvegicus [11] was 0 each time. Also, the figures for the Control in the series on Pneumocystis carinii [10] and with Pneumocystis carinii [6] were 0.02% and 2.21%, respectively.
Regarding `COc1ccc(OC(=O)NC(=N)c2ccc(-c3ccc(-c4ccc(C(=N)NC(=O)Oc5ccc(OC)cc5)cc4)o3)cc2)cc1`, the Toxicity with Rattus norvegicus [5] and in the series on Rattus norvegicus [11] was 0 throughout. In addition, the Control in the series with Pneumocystis carinii [10] is recorded as 0.02%; in the series with Pneumocystis carinii [6], 2.1%.
